Laboratory results: patent US20250340529A1, “Heterocyclic Compounds as Immunomodulators of PD-L1 Interactions” (Ascletis BioScience Co., Ltd, priority 2021, published 2025)

Experiments:
PD-L1/CHO-K1 cells = PD-L1/CHO-K1 cells (Homo sapiens (Human), UniProt Q9NZQ7); assay: PD-L1 internalization (FACS, PD-L1/CHO-K1 cells); format: cell-based; conditions: % activation of PD-L1 internalization = 1 − PD-L1 signal; 17 hours incubation
Procedure: Day 1. Seeding cells: Digest the PD-L1/CHO-K1 cells by trypsin in the flask, then counting the cell number and diluted to 1×10^5 cells/ml. Seeding cells to 6 well plate (Corning, #3516), 2 mL/well. The plates were incubated at 37° C., […] incubator for 24 hours.
Day 2. Preparing compounds and treated cells: Dilute GLC01-258 from 15 mM to 0.5 mM by using DMSO, and 15 mM compound were serial diluted from 15 mM˜15 nM by DMSO, Then 500 times dilute the compounds by using assay buffer. Prepare 0.2% DMSO in assay buffer used for Vehicle control and low control. Take out the plates, aspirated the medium and thrown away. Adding 2 mL of the diluted compounds, vehicle control and low control to corresponding wells. Then incubated the plates for 17 hours at 37° C., 5% CO2 incubator.
Day 3. Preparing samples for FACS: After 17 hours incubation, discarded medium and washed by the PBS. Cells in each well were Digested by trypsin. Centrifuge and discard the supernatant, then wash the cells by DPBS (Ca^2+, Mg^2+ free) for twice. 10 fold dilute the antibody (PE-conjugated mouse anti-human CD274) by DPBS, then adding the staining solution to compounds treated samples and vehicle control sample. The low control only add DPBS without antibody. Incubate the plates at room temperature for 20 minutes and protect from light. After 20 minutes, wash the samples by DPBS for twice. Then centrifuge and discard the supernatant. Resuspend cells by 300 uL DPBS and transfer the samples to 5 mL Polystryrene Round-Bottom Tube (Falcon, #352054), then tested by BD FACSCanto. […].
Set the PD-L1 signal of vehicle control as 100%, PD-L1 signal of Low control as 0%. Then calculate the compound treated samples' PD-L1 signal
0% PD-L1 signal: Low control which stained without anti-CD274
100% PD-L1 Signal: vehicle control which stained with anti-CD274
The % activation of PD-L1 Internalization=1−PD-L1 signal of compound.

[1] = test system: Hep3B-OS8-hPDL1 cells and CD3+ T cells; assay: Hep3B-OS8-hPDL1 and T cells co-culture assay (IFN-γ by ELISA); format: cell-based; conditions: Homo sapiens, T-cell, 72 hours, read-out: Tumor and T Cell EC50 (nm)
Procedure: a. Hep3B-OS8-hPDL1 and T Cells Co-Culture Assay
• 1. Hep3B-OS8-hPDL1 cells were cultured in 1640 medium supplemented with 10% fetal bovine serum, 1% penicillin and streptomycin, in which 100 μg/mL G418 and Hygromycin B were also added. • 2. Hep3B-OS8-hPDL1 cells were harvested and treated with 10 μg/mL mitomycin C at 37° C. for 1.5 h, and the cells were then washed thoroughly with PBS for four times. • 3. Cells were re-suspended with RPMI 1640 medium containing 10% FBS and the cell density was adjusted to 5E5 cells/mL. • 4. Cells were seeded into 96-well flat bottom plate (2.5E4 cells/50 μL/well). b. CD3+ T Cells Isolation (30 mL Blood) • 5. The human blood sample from an individual donor is diluted by the same volume of sterile PBS, for instance add 25 mL sterile PBS into 25 mL fresh whole blood and mix sufficiently by gentle shake. • 6. Transfer 15 mL Lymphoprep medium into a new 50 mL centrifuge tube. • 7. Add the diluted blood sample as soft as possible onto the surface of the Ficoll medium to make sure there is a clear dividing line between the two liquids, and the volume ratio between Ficoll and diluted blood (30 mL) is 1:2. • 8. Move the tube gently to centrifuge, at 1000×g, 25 min, 20° C., with the acceleration (5) and Min deceleration (0) settings during the centrifugation. • 9. Four interfaces in all could be observed after the centrifugation, which are layers of plasma, mononuclear cells, the Ficoll medium and RBCs from top to bottom, and move the tube as gently as possible so as keep the four interfaces separated. Absorb and transfer the second layer of mononuclear cells into another new sterile centrifuge tube carefully, and absorb certain volume of plasma instead of the Ficoll medium if inevitable. • 10. Add sterile PBS of the three times the volume of PBMCs in the tube with PBMC. • 11. Wash the cells twice with 5-10 mL PBS before cell counting with cytometer. Centrifuge at 350×g, 10 min, 20° C. With the acceleration (5) and deceleration (5) settings during the centrifugation. • 12. Resuspend the cells with recommended medium and adjust the density of the PBMCs to the final concentration of 5E7 cells/mL. • 13. Isolate CD3+ T cells with EasySep™ Human T Cell Isolation Kit (STEMCELL Technologies #17951), and the cells were seeded into 96-well flat bottom plate (5E4 cells/100 μL/well). c. Compounds solutions preparation • 14. Prepare the Compounds dilutions in RPMI 1640 medium with 10% FBS according to the Layout. 15. Add compounds into each well in a volume of 50 μL. {3 compounds (GLC01-258, GLC01-269, GLC01-465) in 7 concentrations (0.03, 0.1, 0.3, 1, 3, 10 and 30 μM) and 6 compounds (GLC01-411, GLC01-292, GLC01-445, GLC01-475, GLC01-470 and GLC01-468) in the same concentration (1 μM)}. • 16. […]

[2] = target: extracellular domains of PD-L1 (Homo sapiens (Human), UniProt Q9NZQ7); assay: PD-L1 dimerization (biochemical protein-protein interaction assay); conditions: PDL1-Eu and PDL1-A2, 25° C., 120 min
Chain of extracellular domains of PD-L1 (Q9NZQ7 19-238): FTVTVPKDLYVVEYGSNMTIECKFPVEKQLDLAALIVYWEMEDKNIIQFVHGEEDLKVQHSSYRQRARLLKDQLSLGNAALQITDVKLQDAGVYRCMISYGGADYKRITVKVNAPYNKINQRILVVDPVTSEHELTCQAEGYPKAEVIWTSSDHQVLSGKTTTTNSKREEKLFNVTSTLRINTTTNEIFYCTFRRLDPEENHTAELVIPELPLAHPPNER
Procedure: Compounds were tested in biochemical protein-protein interaction assays to determine if they can specifically dimerize the extracellular domains of PD-L1. • (1) Dilute cpd 1:3 in succession in DMSO for each column for 10±0 pts (refer to dilution plate map) • (2) Transfer 0.2 μL cpds solution in each row to 384 assay plate using Echo, each column containing 2 replicates (refer to assay plate map). • (3) Add 20 μL prepared mixture include PDL1-Eu and PDL1-A2 solution to assay plate, centrifuge at 1000 rpm for 1 min. • (4) Incubate at 25° C. for 120 min. • (5) Read fluorescence signal on Envision 2104 plate reader. • (6) Read the Ratio (665 nm/615 nm) signal on Envision. • (7) Analyze the raw data using the equation (V. Data analysis)

PD-1/PD-L1 = PD-1/PD-L1 (Homo sapiens (Human), UniProt Q9NZQ7); assay: PD-1/PD-L1 Homogeneous Time-Resolved Fluorescence (HTRF) binding assay; conditions: 3 nM PD1, 10 nM PD-L1, 25° C., PBS pH 7.4
Chain of PD-1/PD-L1 (Q9NZQ7 19-238): as above
How it was run: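 HTRF with His-tagged human PD-L1 (19-238, 10 nM) and Fc-tagged human PD-1 (25-167, 3 nM) preincubated with inhibitors 40 min in PBS pH 7.4, 0.05% Tween-20, 0.1% BSA, 1% DMSO, 25° C. Eu anti-human IgG and anti-His-APC added, 60 min; 665/620 nm ratio; IC50 from percent control activity fit.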

Chain of PD-L1/CHO-K1 cells (Q9NZQ7 19-290): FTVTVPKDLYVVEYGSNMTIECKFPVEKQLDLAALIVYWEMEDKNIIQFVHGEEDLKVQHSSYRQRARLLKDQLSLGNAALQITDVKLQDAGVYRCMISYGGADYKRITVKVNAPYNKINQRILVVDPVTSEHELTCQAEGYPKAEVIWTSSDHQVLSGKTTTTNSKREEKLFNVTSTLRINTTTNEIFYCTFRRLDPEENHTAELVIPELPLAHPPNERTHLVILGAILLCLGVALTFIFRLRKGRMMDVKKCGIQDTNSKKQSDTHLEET

`O=C(O)[C@H](CO)NCCN1C(=O)COc2cc(-c3cccc(-c4cccc(-c5cc6c(cc5F)N(CCN[C@@H](CO)C(=O)O)C(=O)CO6)c4Cl)c3Cl)c(F)cc21` [Compound 554, (2S,2'S)-2,2′-((((2,2′-dichloro-[1,1′-biphenyl]-3,3′-diyl)bis(6-fluoro-3-oxo-2,3-dihydro-4H-benzo[b][1,4]oxazine-7,4-diyl))bis(ethane-2,1-diyl))bis(azanediyl))bis(3-hydroxypropanoic acid)] gave an Internalization (PD-L1/CHO-K1 cells) of 23.20%, an EC50 [1] of 5.1 nM and an EC50 [2] of 55.8 nM. It also gave an IC50 (PD-1/PD-L1) of 5.51 nM.

`O=C(O)[C@H](CO)NCCN1C(=O)COc2cc(-c3cccc(-c4cccc(-c5ccc6c(c5)OCC(=O)N6C[C@@H]5CCCN5)c4Cl)c3Cl)ccc21` [Compound 533] gave an Internalization (PD-L1/CHO-K1 cells) of 32.70%, an EC50 [1] of 6.03 nM and an EC50 [2] of 91 nM. For the same compound, the IC50 (PD-1/PD-L1) was 7.11 nM.
